How the values were obtained:
Assay in all cases: drug sensitivity score (DSS) from 5-point dose-response viability curve (DSS (area-under-curve based score)); higher = more sensitive (stronger growth inhibition or killing); extreme values may be limits of the assay
Settings in all cases: exposure time: 72 h; concentration range: 5 concentrations over 10,000-fold range
[1] = system: CAOV3
Method in brief: (§1)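 Drugs in DMSO or water were acoustically dispensed (Echo 550) into 384-well plates at five concentrations across a 10,000-fold range. Ovarian cancer and normal ovarian cells (1,500 per well) were then added, incubated for 3 days at 37°C with 5% CO2, and read for viability by CellTiter-Glo luminescence on a PHERAstar FS. From these readings, Breeze software derived a drug sensitivity score per cell line and drug, with higher values meaning more sensitive and zero meaning no response.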

[2] = system: COV318
Method in brief: as §1

[3] = system: COV362
Method in brief: as §1

[4] = system: HOSE1C
Method in brief: as §1

[5] = system: HOSE2C
Method in brief: as §1

[6] = system: JHOS2
Method in brief: as §1

[7] = system: Kuramochi
Method in brief: as §1

[8] = system: OV90
Method in brief: as §1

[9] = system: OVCAR4
Method in brief: as §1

[10] = system: OVCAR5
Method in brief: as §1

[11] = system: OVCAR8
Method in brief: as §1

[12] = system: Ovsaho
Method in brief: as §1

Row | Compound | drug sensitivity score [1] | drug sensitivity score [2] | drug sensitivity score [3] | drug sensitivity score [4] | drug sensitivity score [5] | drug sensitivity score [6] | drug sensitivity score [7] | drug sensitivity score [8] | drug sensitivity score [9] | drug sensitivity score [10] | drug sensitivity score [11] | drug sensitivity score [12]
1 | CC(C)N(C[C@H]1O[C@@H](n2cnc3c(N)ncnc32)[C@H](O)[C@@H]1O)[C@H]1C[C@@H](CCc2nc3cc(C(C)(C)C)ccc3[nH]2)C1 [Pinometostat] | 0 | 0 | 0 | 0 | 0 | 0 | 0 | 0 | 0 | 0 | 0 | 0
2 | Cc1ccc(=O)n(-c2ccccc2)c1 [Pirfenidone] | 0 | 0 | 0 | 0 | 0 | 0 | 0 | 0 | 0 | 0 | 0 | 0
3 | NCCNc1ccc(NCCN)c2c1C(=O)c1ccncc1C2=O [Pixantrone] | 0 | 0 | 0 | 0 | 0 | 0 | 0.1 | 0.1 | 0 | 0 | 0.4 | 0.3
4 | c1cc(CN2CCCNCCNCCCNCC2)ccc1CN1CCCNCCNCCCNCC1 [Plerixafor] | 0 | 0 | 0 | 0 | 0 | 0 | 0 | 0 | 0 | 0 | 0 | 0
5 | CO[C@H](C(=O)[C@@H](O)[C@@H](C)O)[C@@H]1Cc2cc3cc(O[C@H]4C[C@@H](O[C@@H]5C[C@@H](O)[C@H](O)[C@@H](C)O5)[C@H](O)[C@@H](C)O4)c(C)c(O)c3c(O)c2C(=O)[C@H]1O[C@H]1C[C@@H](O[C@@H]2C[C@@H](O)[C@@H](O[C@@H]3C[C@](C)(O)[C@H](O)[C@@H](C)O3)[C@@H](C)O2)[C@H](O)[C@@H](C)O1 [Plicamycin] | 8.8 | 0 | 2.9 | 0 | 0 | 0 | 0 | 19.1 | 5.7 | 16.5 | 19.4 | 0.1
6 | Nc1cccc2c1C(=O)N(C1CCC(=O)NC1=O)C2=O (stereo not drawn) [Pomalidomide] | 0 | 0 | 0 | 0 | 0 | 0 | 0 | 0 | 0 | 0 | 0 | 0
7 | Cc1ccc(C(=O)Nc2ccc(CN3CCN(C)CC3)c(C(F)(F)F)c2)cc1C#Cc1cnc2cccnn12 [Ponatinib] | 2.4 | 5.7 | 4.9 | 3.3 | 8.5 | 3.6 | 9.3 | 6.9 | 5.7 | 5.5 | 3.3 | 7.6
8 | C=CC(=O)N1CCC(Oc2cc3c(Nc4ccc(Cl)c(Cl)c4F)ncnc3cc2OC)CC1 [Poziotinib] | 13.1 | 0 | 0 | 0.4 | 0 | 0.4 | 1.9 | 0 | 1.3 | 3.3 | 0 | 4.5
9 | CCCCc1nc2cc(/C=C/C(=O)NO)ccc2n1CCN(CC)CC [Pracinostat] | 13.2 | 10 | 5.1 | 22.2 | 18.5 | 13 | 13.5 | 14.6 | 10.4 | 20.9 | 19.5 | 10.5
10 | CC[C@H](C)C(=O)O[C@H]1C[C@H](O)C=C2C=C[C@H](C)[C@H](CC[C@@H](O)C[C@@H](O)CC(=O)O)[C@H]21 [Pravastatin] | 0 | 0 | 0 | 0 | 0 | 0 | 0 | 0 | 0 | 0 | 0 | 0
11 | C[C@]12C=CC(=O)C=C1CC[C@@H]1[C@@H]2[C@@H](O)C[C@@]2(C)[C@H]1CC[C@]2(O)C(=O)CO [Prednisolone] | 0 | 1.1 | 0 | 0 | 3.3 | 0.1 | 0 | 0.1 | 0 | 0 | 0.1 | 0
12 | COc1cccc(OCCCN)c1-c1cc(Nc2cnc(C#N)cn2)n[nH]1 [Prexasertib] | 24.8 | 22.9 | 16.8 | 40.9 | 36.7 | 22.4 | 19.8 | 16.7 | 21.8 | 25 | 30.1 | 16.1
13 | Cn1cc(CNCC2CCN(c3ncc(C(=O)NO)cn3)CC2)c2ccccc21 [Quisinostat] | 11.5 | 4.7 | 4.5 | 22.9 | 19 | 8.1 | 9.2 | 14.6 | 8 | 19.2 | 18.6 | 9
14 | CC(C)(C)c1cc(NC(=O)Nc2ccc(-c3cn4c(n3)sc3cc(OCCN5CCOCC5)ccc34)cc2)no1 [Quizartinib] | 0 | 0 | 0 | 0 | 0.8 | 0 | 0 | 0.2 | 1.5 | 0.8 | 2.2 | 0.2
15 | Nc1cc(F)ccc1NC(=O)/C=C/c1cnn(C/C=C/c2ccccc2)c1 [RGFP966] | 0.1 | 0.6 | 0 | 1.1 | 2.4 | 0.1 | 0.4 | 1.9 | 2.4 | 3.3 | 2.3 | 0
16 | COC(=O)c1ccc([C@H]2c3[nH]c4ccccc4c3C[C@H](C(=O)OC)N2C(=O)CCl)cc1 [RSL3] | 0 | 0 | 0 | 14.5 | 25.4 | 0 | 0 | 0 | 0 | 3.1 | 0 | 0
17 | Cc1cnc(NC(=O)Nc2cc(Br)c(C)cc2OC[C@@H]2CNCCO2)cn1 [Rabusertib] | 0.1 | 0.2 | 0.2 | 1.8 | 2 | 0 | 0.1 | 1.6 | 1 | 0.1 | 0 | 0
18 | Cc1cn(-c2cc(NC(=O)c3ccc(C)c(Nc4nccc(-c5cnccn5)n4)c3)cc(C(F)(F)F)c2)cn1 [Radotinib] | 0 | 0 | 0 | 0 | 0 | 0 | 0.9 | 1.3 | 0 | 0 | 0 | 0
19 | CC(C)(C)Cn1c(N)nc2ccc(-c3[nH]c(C(C)(C)C)nc3-c3ccc(F)cc3)nc21 [Ralimetinib] | 2.9 | 2.6 | 1.4 | 1.1 | 0.5 | 1.8 | 6.6 | 4.1 | 1.1 | 4.3 | 3.1 | 1.8
20 | O=C(c1ccc(OCCN2CCCCC2)cc1)c1c(-c2ccc(O)cc2)sc2cc(O)ccc12 [Raloxifene] | 0.5 | 1.8 | 1.2 | 0 | 0 | 1 | 2.6 | 1.9 | 0.3 | 2 | 1.5 | 3.3
21 | Cc1nc(=O)c2cc(CN(C)c3ccc(C(=O)N[C@@H](CCC(=O)O)C(=O)O)s3)ccc2[nH]1 [Raltitrexed] | 10.7 | 3 | 6 | 21.8 | 20.3 | 4.2 | 9.1 | 6.1 | 6.4 | 6.3 | 18.4 | 5.7
22 | Cn1nccc1Nc1nccc(-c2ccn([C@H](CO)c3ccc(Cl)c(F)c3)c(=O)c2)n1 [Ravoxertinib] | 6 | 0 | 0.2 | 0 | 0 | 3.7 | 4.8 | 13.6 | 0.8 | 8.8 | 6.9 | 4.7
23 | CNC(=O)c1cc(Oc2ccc(NC(=O)Nc3ccc(Cl)c(C(F)(F)F)c3)c(F)c2)ccn1 [Regorafenib] | 2 | 0.6 | 0.6 | 1.6 | 2.7 | 1.3 | 1.2 | 7.9 | 1.6 | 4.4 | 4.1 | 2
24 | CCOC(=O)C1=CCCC[C@H]1S(=O)(=O)Nc1ccc(F)cc1Cl [Resatorvid] | 0 | 0 | 0 | 0 | 0 | 0 | 0 | 0 | 0 | 0 | 0 | 0
25 | CCOCc1nc2c(N)nc3ccccc3c2n1CC(C)(C)O [Resiquimod] | 0 | 0 | 0 | 0 | 0 | 0.6 | 1.2 | 0 | 0.3 | 0.3 | 0 | 0.3
26 | CN(C)Cc1ccc(S(=O)(=O)n2ccc(/C=C/C(=O)NO)c2)cc1 [Resminostat] | 8.2 | 4.8 | 2.9 | 19.3 | 12 | 5.3 | 5.8 | 9.7 | 3.2 | 12.3 | 11.8 | 3.6
27 | CN(C)C(=O)c1cc2cnc(Nc3ccc(N4CCNCC4)cn3)nc2n1C1CCCC1 [Ribociclib] | 0 | 0.2 | 0 | 0 | 0 | 2.9 | 0 | 0.6 | 0.6 | 2.3 | 0 | 0
28 | CO[C@H]1C[C@@H]2CC[C@@H](C)[C@@](O)(O2)C(=O)C(=O)N2CCCC[C@H]2C(=O)O[C@H]([C@H](C)C[C@@H]2CC[C@@H](OP(C)(C)=O)[C@H](OC)C2)CC(=O)[C@H](C)/C=C(\C)[C@@H](O)[C@@H](OC)C(=O)[C@H](C)C[C@H](C)/C=C/C=C/C=C/1C [Ridaforolimus] | 8.7 | 0.6 | 0 | 2.3 | 1 | 4.3 | 3.2 | 10.3 | 2.6 | 4.6 | 6.8 | 4.6
29 | COc1cc(OC)c(/C=C/S(=O)(=O)Cc2ccc(OC)c(NCC(=O)O)c2)c(OC)c1 [Rigosertib] | 23.4 | 11.7 | 9.8 | 28.4 | 20.8 | 11.5 | 14.9 | 20.2 | 10.9 | 17 | 25.4 | 18.9

Source: the supplement of paper PMC11616607
